In EP3138849B1, “SALTS OF PHOSPHORUS-CONTAINING AMINOGLYCOSIDE ANTIBIOTICS” (Mathys AG Bettlach, priority 2015, dated 2017):

Assays:
MC 3T3-E1-Zellen = assay type: cell-based, Maus
Experimental: Für die Untersuchungen der Cytokompatibilität der aminoglykosidhaltigen Beschichtungen werden runde, sandgestrahlte Probekörper aus Reintitan mit einem Durchmesser von 11 mm mit Gentamicin-Palmitat, Gentamicin-Dodecylphosphat bzw. Gentamicin-Octadecylphosphonsäure mit einem Gehalt von 100 µg Gentamicn-Base pro cm^2, wie in Beispiel 30 beschrieben, beschichtet.
Die Probekörper werden nach dem Trocknen der Beschichtung in Mikrotiterplatten überführt und mit einer definierten Anzahl von MC 3T3-E1-Zellen (Maus-Präosteoblasten-Zelllinie, 25.000 Zellen/ml) besiedelt.
Nach einer Inkubationszeit von 4 Tagen erfolgt die Vitalfärbung mit einer Mischung aus Fluoresceindiacetat (FDA) und GelRed®.
Fig. 2 zeigt die Vitalitätsbestimmung der Zellen mittels Auflicht-Fluoreszenzmikroskopie: Gentamicin-Palmitat (A), Gentamicin-Dodecylphosphat (B), Gentamicin-Octadecylphosphat (C).

[1] = Release of aminoglycosides from coatings on pure titanium test discs; assay type: physicochemical; settings: for Freisetzungsrate von Gentamicin-Base (time course) / initiale Freisetzung von Gentamicin-Base: coated titanium disc, 100 µg Gentamicin-Base per cm^2, 1 ml isotonic saline, 37 °C; for Freisetzungsrate von Gentamicin-Base (time course): 21 d, sampling at 1, 2, 3, 4, 7, 14, 21 days; for Freisetzungsrate von Gentamicin-Base (time course) / Wirkstofffreisetzung von beschichteten Titanoberflächen: Fig. 1; for initiale Freisetzung von Gentamicin-Base: Fig. 1, start of release; for Wirkstofffreisetzung von beschichteten Titanoberflächen: compared with Gentamicin-Palmitat
Text: Zur Untersuchung der Freisetzung von Aminoglykosiden aus Beschichtungen werden runde Probekörper aus Reintitan (Grade 4) mit einem Durchmesser von 11 mm verwendet. Für die Beschichtungen werden folgende Aminoglycosid-Verbindungen verwendet: Gentamicin-Palmitat, Gentamicin-Dodecylphosphat und Gentamicin-Octadecylphosphonsäure.
Umsetzung von Gentamicin mit Palmitat im molaren Verhältnis 1:4. Umsetzung von Gentamicin mit Dodecylphosphat bzw. Octadecylphosphonat im molaren Verhältnis 1:3.
Lösung von Gentamicin-Palmitat, Gentamicin-Dodecylphosphat und Gentamicin-Octadecylphosphonsäure in Ethanol (Konzentration 15-25 mg/ml). Auf die Oberfläche wurden unter sterilen Bedingungen 100 µg Gentamicin-Base pro cm^2 aufgetragen. Trocknen der Beschichtung (4 h bei Raumtemperatur).
Inkubation der beschichteten Probekörper in 1 ml isotonischer Kochsalzlösung über eine Zeitdauer von 21 d bei 37 °C. Zu festgelegten Zeitpunkten (1, 2, 3, 4, 7, 14 und 21 Tagen) werden die Überstände abgenommen und die Probekörper in neuer isotonischer Kochsalzlösung weiter inkubiert.
Der Gehalt an Gentamicin wurde im Hemmhoftest mit Bacillus subtilis (ATCC 6633) bestimmt.
Die gemittelte Menge der freigesetzten Gentamicin-Base aus diesen Gentamicin-Salzen ist in Fig. 1 dargestellt.

Row | Substance | Zytotoxizität (MC 3T3-E1-Zellen) | Freisetzungsrate von Gentamicin-Base (time course) [1] | initiale Freisetzung von Gentamicin-Base [1] | Wirkstofffreisetzung von beschichteten Titanoberflächen [1] | Zellzahlen (MC 3T3-E1-Zellen)
1 | Gentamicin-Dodecylphosphat | signifikant geringere Zytotoxizität | bleibt bis Tag 7 konstant und fällt dann nur schwach ab | niedrigere Freisetzungsrate von Gentamicin-Base als das Gentamicin-Palmitat | retardierende Wirkstofffreisetzung | 
2 | Gentamicin-Octadecylphosphonsäure |  | bleibt von Tag 2 bis Tag 14 konstant | niedrigste initiale Freisetzung von Gentamicin-Base | retardierende Wirkstofffreisetzung | 
3 | Gentamicin-Palmitat [reference compound] |  | bis zum vierten Freisetzungstag stark abnimmt | initial hohen Freisetzung der Gentamicin-Base (Burst release) |  | niedrigsten Zellzahlen
